Converted amounts (≈) assume the structure as drawn.
Columns and labels:
σ2 receptors [1] = assay: PDSP binding study, σ2 receptors; conditions: versus the other four hits of the primary screen
[2] = Solubility, shake-flask method; type: physicochemical; conditions: thermodynamic from solid
Protocol: The solubility of CW-02-79 in selected oils, organic solvents, and water solutions of various pH values was examined by using the shake-flask method, by adding an excess amount of CW-02-79. The blends were mixed on a vortex mixer for 24 h at 25 ± 2 °C to reach equilibrium. The samples were centrifuged (1000× g, 10 min, 25 °C) on a MiniSpin® plus centrifuge (Eppendorf, Hamburg, Germany). The concentration of CW-02-79 was determined after proper dilution of the supernatant with isopropanol using the LC-MS/MS method.
The concentration of CW-02-79 was determined using a LC-MS/MS method. The analysis was performed on a UHPLC chromatograph ACELLA (Thermo Fisher Scientific Inc., Madison, WI, USA), coupled to a triple quadrupole mass spectrometer TSQ Quantum Access MAX (Thermo Fisher Scientific Inc., Madison, WI, USA) with a heated electrospray ionization (HESI) interface. The column was XTerra MS C18 (150 mm × 2.1 mm, […] particle size). The mobile phase was acetonitrile/0.1% formic acid = 70:30 (v/v), the flow rate was 0.2 mL min^−1, the column temperature was set to 35 °C, and the injection volume was 10 µL. CW-02-79 and the internal standard were detected and quantified in the positive HESI mode (m/z = 389.90–345.90 and m/z = 349.00–304.11, respectively).

[3] = In vitro permeation through iPSC-derived blood–brain barrier model; type: in vitro ADME, human; conditions: inserts without cells; read-out: recovery of CW-02-79 without cells
Description: The in vitro BBB model based on the co-culture of iPSC-derived brain microvascular endothelial cells, astrocytes, and pericytes was used to estimate the transport of CW-02-79 into the brain from the developed nanoemulsions (the protocol used is available on the manufacturer’s website: iCell Blood Brain Barrier Isogenic Kit protocol, FujiFilm Cellular Dynamic Inc., Madison, WI, USA) [24]. Cell culture inserts for BBB co-cultures (pore size 0.4 µm, effective cell growth area 0.33 cm^2, Falcon®, Corning Inc., Salt Lake City, UT, USA) were coated on the apical side with a fibronectin-collagen IV matrix and on the basolateral side with a 0.1% gelatin solution. Then, astrocyte and pericyte suspensions were seeded on the basolateral side, with brain microvascular endothelial cells in the apical region of inserts, followed by overnight incubation at 37 °C and 5% CO2. […]
The total volume on the basolateral side was compensated with 100 µL of the fresh termostated medium. […] The mass balance (%) was also determined based on the amount of CW-02-79 determined in both the apical and basolateral compartments at the end of the assay divided by the total amount of CW-02-79 placed in the apical compartment to assess the potential adsorption to plastic or non-specific binding to cells.

σ2 receptors [4] = molecular target: σ2 receptors; set-up: method as in PDSP Ki database https://pdspdb.unc.edu/databases/kidb.php; conditions: ref PDSP Ki database https://pdspdb.unc.edu/databases/kidb.php; cited from earlier work
5-HT7 receptor = molecular target: 5-HT7 receptor; set-up: method as in PDSP Ki database https://pdspdb.unc.edu/databases/kidb.php; conditions: ref PDSP Ki database https://pdspdb.unc.edu/databases/kidb.php; cited from earlier work
[5] = molecular target: benzodiazepine binding site at GABAA receptors; set-up: method as in PDSP Ki database https://pdspdb.unc.edu/databases/kidb.php; conditions: ref PDSP Ki database https://pdspdb.unc.edu/databases/kidb.php; cited from earlier work
histamine H2 receptor = molecular target: histamine H2 receptor; set-up: method as in PDSP Ki database https://pdspdb.unc.edu/databases/kidb.php; conditions: ref PDSP Ki database https://pdspdb.unc.edu/databases/kidb.php; cited from earlier work
dopamine transporter = molecular target: dopamine transporter; set-up: method as in PDSP Ki database https://pdspdb.unc.edu/databases/kidb.php; conditions: ref PDSP Ki database https://pdspdb.unc.edu/databases/kidb.php; cited from earlier work
[6] = tested on: GABAA receptors that contain any of the α1 to α6 subunits; set-up: method as in personal communication with Dr. Janet Fisher; conditions: 10 µM; ref personal communication with Dr. Janet Fisher; cited from earlier work
[7] = set-up: method as in unpublished data, MM Savić and B Divović Matović; conditions: doses 1 to 30 mg/kg; ref unpublished data, MM Savić and B Divović Matović; cited from earlier work

In the case of `COc1ccc2c3nn(-c4ccc(OC(F)(F)F)cc4)c(=O)c-3c[nH]c2c1C` [CW-02-79, 7-methoxy-6-methyl-2-(4-(trifluoromethoxy)phenyl)-2,5-dihydro-3H-pyrazolo [4,3-c]quinolin-3-one], the “selectivity for σ2 receptors” value (σ2 receptors [1]) is reported as at least 20 fold, the solubility at 24 h ([2]; aqueous buffer, Phosphate buffer, pH 7.4, 25 °C) is reported as 0.0118 ± 0.0007 mg/mL (≈ 30.3 µM) and the solubility at 24 h ([2]; oil or lipid, Castor oil, 25 °C) is reported as 0.02796 ± 3e-05 mg/mL (≈ 71.8 µM). The solubility at 24 h ([2]; oil or lipid, Fish oil, 25 °C) was 0.03419 ± 6e-05 mg/mL (≈ 87.8 µM), the solubility at 24 h ([2]; oil or lipid, MCT, 25 °C) was 0.04993 ± 7e-05 mg/mL (≈ 128 µM) and the solubility at 24 h ([2]; oil or lipid, MCT:castor oil (1:1, w/w), 25 °C) was 0.2184 ± 0.0003 mg/mL (≈ 561 µM). It also gave a solubility at 24 h ([2]; oil or lipid, MCT:soybean oil (1:1, w/w), 25 °C) of 0.04141 ± 4e-05 mg/mL (≈ 106 µM), a solubility at 24 h ([2]; oil or lipid, Soybean oil, 25 °C) of 0.06568 ± 0.00043 mg/mL (≈ 169 µM) and a solubility at 24 h ([2]; organic solvent or mixture, DMSO, 25 °C) of over 30 mg/mL. It also gave a solubility at 24 h ([2]; organic solvent or mixture, Isopropanol, 25 °C) of 5.75 mg/mL (≈ 14800 µM), a solubility at 24 h ([2]; organic solvent or mixture, Methanol, 25 °C) of 0.9391 ± 0.00353 mg/mL (≈ 2410 µM) and a solubility at 24 h ([2]; simulated gastric fluid, 0.1M HCl, 25 °C) of 0.0123 ± 0.00061 mg/mL (≈ 31.7 µM). The solubility at 24 h ([2]; Ultrapure water, 25 °C) was 0.0118 ± 0.0002 mg/mL (≈ 30.2 µM), the recovery at 24 h, 3 µM [3] was about 100% and the Ki (σ2 receptors [4]) was 0.112 µM. For the same compound, the Ki (5-HT7 receptor) was 2.4 µM, the Ki [5] was 4.7 µM and the Ki (histamine H2 receptor) was 5.2 µM. The Ki (dopamine transporter) was over 10 µM, the “modulation of GABAA receptors” value [6] was “does not at all modulate” and the “signs of sedation or motor incapacitation” value [7] was “no signs of sedation or motor incapacitation”.

Reference: article PMC11858841, “Intravenous Nanoemulsions Loaded with Phospholipid Complex of a Novel Pyrazoloquinolinone Ligand for Enhanced Brain Delivery” (Pharmaceutics, 2025)
